Columns and labels:
Test in all cases: Test B pre-/postemergence
Type in all cases: in vivo
Parameters in all cases: key: 0 is no effect; 10 is complete control
corn (Zea mays) = system: corn (Zea mays)
In short: (§1)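 Scored visually 0 (none) to 10 (complete control) against untreated plants after twelve to sixteen greenhouse days. Test chemicals, formulated in surfactant-containing non-phytotoxic solvent, applied to soil after planting and, separately, onto 1- to 4-leaf (2–18 cm) plants.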

rape (Brassica napus) = system: rape (Brassica napus)
In short: as §1

[1] = system: cocklebur (Xanthium strumarium)
In short: as §1

[2] = system: purple nutsedge (Cyperus rotundus)
In short: as §1

[3] = system: bedstraw (Galium aparine)
In short: as §1

soybean (Glycine max) = system: soybean (Glycine max)
In short: as §1

[4] = system: crabgrass (Digitaria sanguinalis)
In short: as §1

[5] = system: sugar beet (Beta vulgaris)
In short: as §1

[6] = system: giant foxtail (Setaria faberii)
In short: as §1

[7] = system: broadleaf signalgrass (Brachiaria decumbens); conditions: Preemergence
In short: as §1

[8] = system: wheat (Triticum aestivum)
In short: as §1

[9] = system: velvetleaf (Abutilon theophrasti)
In short: as §1

[10] = system: pigweed (Amaranthus retroflexus)
In short: as §1

[11] = system: momingglory (Ipomoea hederacea)
In short: as §1

`Cc1cnc(-c2ccc(Cl)cc2)nc1Cn1ccc(C(F)(F)F)n1` [Compound 6] was tested, and the “Plant response rating, Corn” value (corn (Zea mays); Rate 62 g/ha, Postemergence) was 3, the “Corn plant response rating” value (corn (Zea mays); Rate 62 g/ha, Preemergence) was 0 and the “Plant response rating, Corn” value (corn (Zea mays); Rate 125 g/ha, Postemergence) was 3. For the same compound, the “Corn plant response rating” value (corn (Zea mays); Rate 125 g/ha, Preemergence) was 0, the “Plant response rating, Corn” value (corn (Zea mays); Rate 250 g/ha, Postemergence) was 3 and the “Plant response rating, Corn” value (corn (Zea mays); Rate 250 g/ha, Preemergence) was 0. The “Plant response rating, Corn” value (corn (Zea mays); Rate 500 g/ha, Postemergence) was 3, the “Plant response rating, Corn” value (corn (Zea mays); Rate 500 g/ha, Preemergence) was 0 and the “Plant response rating, Rape” value (rape (Brassica napus); Rate 62 g/ha, Postemergence) was 8. The “Rape plant response rating” value (rape (Brassica napus); Rate 62 g/ha, Preemergence) was 0, the “Plant response rating, Rape” value (rape (Brassica napus); Rate 125 g/ha, Postemergence) was 8 and the “Rape plant response rating” value (rape (Brassica napus); Rate 125 g/ha, Preemergence) was 2. The “Plant response rating, Rape” value (rape (Brassica napus); Rate 250 g/ha, Postemergence) was 8, the “Plant response rating, Rape” value (rape (Brassica napus); Rate 250 g/ha, Preemergence) was 4 and the “Plant response rating, Rape” value (rape (Brassica napus); Rate 500 g/ha, Postemergence) was 8. The “Plant response rating, Rape” value (rape (Brassica napus); Rate 500 g/ha, Preemergence) was 7, the “Plant response rating, Cocklebur” value ([1]; Rate 62 g/ha, Postemergence) was 5 and the “Cocklebur plant response rating” value ([1]; Rate 62 g/ha, Preemergence) was 0. The “Plant response rating, Cocklebur” value ([1]; Rate 125 g/ha, Postemergence) was 6, the “Cocklebur plant response rating” value ([1]; Rate 125 g/ha, Preemergence) was 0 and the “Plant response rating, Cocklebur” value ([1]; Rate 250 g/ha, Postemergence) was 7. The “Plant response rating, Cocklebur” value ([1]; Rate 250 g/ha, Preemergence) was 0, the “Plant response rating, Cocklebur” value ([1]; Rate 500 g/ha, Postemergence) was 7 and the “Plant response rating, Cocklebur” value ([1]; Rate 500 g/ha, Preemergence) was 0. For the same compound, the “Plant response rating, Nutsedge” value ([2]; Rate 62 g/ha, Postemergence) was 2, the “Nutsedge plant response rating” value ([2]; Rate 62 g/ha, Preemergence) was 0 and the “Nutsedge plant response rating” value ([2]; Rate 125 g/ha, Preemergence) was 0. The “Plant response rating, Nutsedge” value ([2]; Rate 250 g/ha, Postemergence) was 2, the “Plant response rating, Nutsedge” value ([2]; Rate 250 g/ha, Preemergence) was 0 and the “Plant response rating, Nutsedge” value ([2]; Rate 500 g/ha, Postemergence) was 3. For the same compound, the “Plant response rating, Nutsedge” value ([2]; Rate 500 g/ha, Preemergence) was 0, the “Plant response rating, Bedstraw” value ([3]; Rate 62 g/ha, Postemergence) was 5 and the “Bedstraw plant response rating” value ([3]; Rate 62 g/ha, Preemergence) was 0. For the same compound, the “Plant response rating, Bedstraw” value ([3]; Rate 125 g/ha, Postemergence) was 7, the “Bedstraw plant response rating” value ([3]; Rate 125 g/ha, Preemergence) was 0 and the “Plant response rating, Bedstraw” value ([3]; Rate 250 g/ha, Postemergence) was 7. The “Plant response rating, Bedstraw” value ([3]; Rate 250 g/ha, Preemergence) was 0, the “Plant response rating, Bedstraw” value ([3]; Rate 500 g/ha, Postemergence) was 8 and the “Plant response rating, Bedstraw” value ([3]; Rate 500 g/ha, Preemergence) was 5. For the same compound, the “Plant response rating, Soybean” value (soybean (Glycine max); Rate 62 g/ha, Postemergence) was 6, the “Soybean plant response rating” value (soybean (Glycine max); Rate 62 g/ha, Preemergence) was 0 and the “Plant response rating, Soybean” value (soybean (Glycine max); Rate 125 g/ha, Postemergence) was 6. The “Soybean plant response rating” value (soybean (Glycine max); Rate 125 g/ha, Preemergence) was 0, the “Plant response rating, Soybean” value (soybean (Glycine max); Rate 250 g/ha, Postemergence) was 6 and the “Plant response rating, Soybean” value (soybean (Glycine max); Rate 250 g/ha, Preemergence) was 0. The “Plant response rating, Soybean” value (soybean (Glycine max); Rate 500 g/ha, Postemergence) was 6, the “Plant response rating, Soybean” value (soybean (Glycine max); Rate 500 g/ha, Preemergence) was 0 and the “Plant response rating, Crabgrass” value ([4]; Rate 62 g/ha, Postemergence) was 5. The “Crabgrass plant response rating” value ([4]; Rate 62 g/ha, Preemergence) was 1, the “Plant response rating, Crabgrass” value ([4]; Rate 125 g/ha, Postemergence) was 8 and the “Crabgrass plant response rating” value ([4]; Rate 125 g/ha, Preemergence) was 2. The “Plant response rating, Crabgrass” value ([4]; Rate 250 g/ha, Postemergence) was 8, the “Plant response rating, Crabgrass” value ([4]; Rate 250 g/ha, Preemergence) was 8 and the “Plant response rating, Crabgrass” value ([4]; Rate 500 g/ha, Postemergence) was 9. For the same compound, the “Plant response rating, Crabgrass” value ([4]; Rate 500 g/ha, Preemergence) was 10, the “Plant response rating, Sugarbeets” value ([5]; Rate 62 g/ha, Postemergence) was 7 and the “Sugarbeets plant response rating” value ([5]; Rate 62 g/ha, Preemergence) was 0. For the same compound, the “Plant response rating, Sugarbeets” value ([5]; Rate 125 g/ha, Postemergence) was 8, the “Sugarbeets plant response rating” value ([5]; Rate 125 g/ha, Preemergence) was 3 and the “Plant response rating, Sugarbeets” value ([5]; Rate 250 g/ha, Postemergence) was 8. The “Plant response rating, Sugarbeets” value ([5]; Rate 250 g/ha, Preemergence) was 9, the “Plant response rating, Sugarbeets” value ([5]; Rate 500 g/ha, Postemergence) was 9 and the “Plant response rating, Sugarbeets” value ([5]; Rate 500 g/ha, Preemergence) was 10. The “Giant foxtail plant response rating” value ([6]; Rate 62 g/ha, Preemergence) was 2, the “Plant response rating, Giant foxtail” value ([6]; Rate 125 g/ha, Postemergence) was 4 and the “Giant foxtail plant response rating” value ([6]; Rate 125 g/ha, Preemergence) was 6. The “Plant response rating, Giant foxtail” value ([6]; Rate 250 g/ha, Postemergence) was 5, the “Plant response rating, Giant foxtail” value ([6]; Rate 250 g/ha, Preemergence) was 9 and the “Plant response rating, Giant foxtail” value ([6]; Rate 500 g/ha, Postemergence) was 6. The “Plant response rating, Giant foxtail” value ([6]; Rate 500 g/ha, Preemergence) was 10, the “B. signalgrass plant response rating” value ([7]; Rate 62 g/ha) was 1 and the “B. signalgrass plant response rating” value ([7]; Rate 125 g/ha) was 4. The “Plant response rating, B. signalgrass” value ([7]; Rate 250 g/ha) was 9, the “Plant response rating, B. signalgrass” value ([7]; Rate 500 g/ha) was 9 and the “Plant response rating, Wheat” value ([8]; Rate 62 g/ha, Postemergence) was 1. For the same compound, the “Wheat plant response rating” value ([8]; Rate 62 g/ha, Preemergence) was 0, the “Plant response rating, Wheat” value ([8]; Rate 125 g/ha, Postemergence) was 2 and the “Wheat plant response rating” value ([8]; Rate 125 g/ha, Preemergence) was 0. The “Plant response rating, Wheat” value ([8]; Rate 250 g/ha, Postemergence) was 2, the “Plant response rating, Wheat” value ([8]; Rate 250 g/ha, Preemergence) was 0 and the “Plant response rating, Wheat” value ([8]; Rate 500 g/ha, Postemergence) was 3. For the same compound, the “Plant response rating, Wheat” value ([8]; Rate 500 g/ha, Preemergence) was 0, the “Plant response rating, Velvetleaf” value ([9]; Rate 62 g/ha, Postemergence) was 7 and the “Velvetleaf plant response rating” value ([9]; Rate 62 g/ha, Preemergence) was 1. For the same compound, the “Plant response rating, Velvetleaf” value ([9]; Rate 125 g/ha, Postemergence) was 7, the “Velvetleaf plant response rating” value ([9]; Rate 125 g/ha, Preemergence) was 2 and the “Plant response rating, Velvetleaf” value ([9]; Rate 250 g/ha, Postemergence) was 8. For the same compound, the “Plant response rating, Velvetleaf” value ([9]; Rate 250 g/ha, Preemergence) was 2, the “Plant response rating, Velvetleaf” value ([9]; Rate 500 g/ha, Postemergence) was 8 and the “Plant response rating, Velvetleaf” value ([9]; Rate 500 g/ha, Preemergence) was 3. The “Plant response rating, Redroot pigweed” value ([10]; Rate 62 g/ha, Postemergence) was 5, the “Redroot pigweed plant response rating” value ([10]; Rate 62 g/ha, Preemergence) was 0 and the “Plant response rating, Redroot pigweed” value ([10]; Rate 125 g/ha, Postemergence) was 7. The “Redroot pigweed plant response rating” value ([10]; Rate 125 g/ha, Preemergence) was 3, the “Plant response rating, Redroot pigweed” value ([10]; Rate 250 g/ha, Postemergence) was 9 and the “Plant response rating, Redroot pigweed” value ([10]; Rate 250 g/ha, Preemergence) was 6. The “Plant response rating, Redroot pigweed” value ([10]; Rate 500 g/ha, Postemergence) was 9, the “Plant response rating, Redroot pigweed” value ([10]; Rate 500 g/ha, Preemergence) was 6 and the “Plant response rating, Morningglory” value ([11]; Rate 62 g/ha, Postemergence) was 3. For the same compound, the “Morningglory plant response rating” value ([11]; Rate 62 g/ha, Preemergence) was 1, the “Plant response rating, Morningglory” value ([11]; Rate 125 g/ha, Postemergence) was 8 and the “Morningglory plant response rating” value ([11]; Rate 125 g/ha, Preemergence) was 1. The “Plant response rating, Morningglory” value ([11]; Rate 250 g/ha, Postemergence) was 8, the “Plant response rating, Morningglory” value ([11]; Rate 250 g/ha, Preemergence) was 2 and the “Plant response rating, Morningglory” value ([11]; Rate 500 g/ha, Postemergence) was 8. The “Plant response rating, Morningglory” value ([11]; Rate 500 g/ha, Preemergence) was 2.

Reference: patent US6525001B1, “Substituted pyrimidine and pyridine herbicides” (Mid-American Commercialization Corporation, priority 1997, dated 2003)
